Measurements taken from ChEMBL document CHEMBL1201862, “PubChem BioAssay data set” (2004).
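Each compound was tested at five concentrations against cells in 96-well plates for 48 hours. Here, GI50 denotes the concentration required for 50% inhibition of growth.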 Activity calls are given as the source filed them. No stated cut-off is given here; in the data, active = GI50 up to about 1.1 µM and inactive = higher.

Key:
Experiment in all cases: NCI anticancer screen, dose series, 48 h
MDA-MB-435 = system: MDA-MB-435
UACC-62 = system: UACC-62
MDA-N = system: MDA-N
OVCAR-5 = system: OVCAR-5
CCRF-CEM = system: CCRF-CEM
SK-MEL-2 = system: SK-MEL-2
KM12 = system: KM12
PC-3 = system: PC-3
LOX IMVI = system: LOX IMVI
SK-MEL-28 = system: SK-MEL-28
HL-60 = system: HL-60
IGROV-1 = system: IGROV-1
SF-295 = system: SF-295
SW-620 = system: SW-620
UO-31 = system: UO-31
NCI-H522 = system: NCI-H522
Malme-3M = system: Malme-3M
MDA-MB-231 = system: MDA-MB-231
BT-549 = system: BT-549
SK-MEL-5 = system: SK-MEL-5
HCC 2998 = system: HCC 2998
DU-145 = system: DU-145
OVCAR-8 = system: OVCAR-8
SNB-19 = system: SNB-19
HCT-15 = system: HCT-15
HOP-62 = system: HOP-62
NCI-H460 = system: NCI-H460
A498 = system: A498
COLO 205 = system: COLO 205
SF-268 = system: SF-268
MCF7 = system: MCF7
SN12C = system: SN12C
SNB-75 = system: SNB-75
EKVX = system: EKVX
T47D = system: T47D
U-251 = system: U-251
RXF 393 = system: RXF 393
HT-29 = system: HT-29
A549 = system: A549
TK-10 = system: TK-10
HCT-116 = system: HCT-116
UACC-257 = system: UACC-257
SR = system: SR
RPMI-8226 = system: RPMI-8226
786-0 = system: 786-0
ACHN = system: ACHN
NCI/ADR-RES = system: NCI/ADR-RES
OVCAR-4 = system: OVCAR-4
NCI-H23 = system: NCI-H23
K562 = system: K562
SK-OV-3 = system: SK-OV-3
NCI-H226 = system: NCI-H226
Hs-578T = system: Hs-578T
SF-539 = system: SF-539
OVCAR-3 = system: OVCAR-3
CAKI-1 = system: CAKI-1
MOLT-4 = system: MOLT-4
M14 = system: M14
HOP-92 = system: HOP-92

## O=C(N/C(=C\c1ccccc1)c1nc2ccccc2c(=O)o1)c1ccccc1
MDA-MB-435
  GI50: 23.6 µM (inactive)
UACC-62
  GI50: 30.1 µM (inactive)
MDA-N
  GI50: > 53 µM (inactive)
OVCAR-5
  GI50: > 88.9 µM (inactive)
CCRF-CEM
  GI50: > 100 µM (inactive)
SK-MEL-2
  GI50: > 100 µM (inactive)
KM12
  GI50: 7.96 µM (inactive)
PC-3
  GI50: > 100 µM (inactive)
LOX IMVI
  GI50: 27.3 µM (inactive)
SK-MEL-28
  GI50: > 100 µM (inactive)
HL-60
  GI50: > 100 µM (inactive)
IGROV-1
  GI50: 31.4 µM (inactive)
SF-295
  GI50: 36.2 µM (inactive)
SW-620
  GI50: > 88.3 µM (inactive)
UO-31
  GI50: > 41.6 µM (inactive)
NCI-H522
  GI50: 38.9 µM (inactive)
Malme-3M
  GI50: > 100 µM (inactive)
MDA-MB-231
  GI50: > 38.3 µM (inactive)
BT-549
  GI50: 20 µM (inactive)
SK-MEL-5
  GI50: > 100 µM (inactive)
HCC 2998
  GI50: > 100 µM (inactive)
DU-145
  GI50: > 76.7 µM (inactive)
OVCAR-8
  GI50: > 57.7 µM (inactive)
SNB-19
  GI50: 27.3 µM (inactive)
HCT-15
  GI50: 97.1 µM
HOP-62
  GI50: > 52.5 µM (inactive)
NCI-H460
  GI50: > 72.6 µM (inactive)
A498
  GI50: > 100 µM (inactive)
COLO 205
  GI50: > 100 µM (inactive)
SF-268
  GI50: 23.8 µM (inactive)
MCF7
  GI50: 5.38 µM (inactive)
SN12C
  GI50: > 86.7 µM (inactive)
SNB-75
  GI50: 20.4 µM (inactive)
EKVX
  GI50: 57.3 µM (inactive)
T47D
  GI50: > 28.6 µM (inactive)
U-251
  GI50: 33.8 µM (inactive)
RXF 393
  GI50: > 62.5 µM (inactive)
HT-29
  GI50: > 100 µM (inactive)
A549
  GI50: > 100 µM (inactive)
TK-10
  GI50: > 100 µM (inactive)
HCT-116
  GI50: > 55.3 µM (inactive)
UACC-257
  GI50: > 43.1 µM (inactive)
SR
  GI50: > 100 µM (inactive)
RPMI-8226
  GI50: > 100 µM (inactive)
786-0
  GI50: 41.7 µM (inactive)
ACHN
  GI50: 31 µM (inactive)
NCI/ADR-RES
  GI50: 33.4 µM (inactive)
OVCAR-4
  GI50: > 88.5 µM (inactive)
NCI-H23
  GI50: 46.3 µM (inactive)
K562
  GI50: > 100 µM (inactive)
SK-OV-3
  GI50: 59.2 µM (inactive)
NCI-H226
  GI50: > 67.6 µM (inactive)
Hs-578T
  GI50: 22.1 µM (inactive)
SF-539
  GI50: > 53.7 µM (inactive)
OVCAR-3
  GI50: > 70.5 µM (inactive)
CAKI-1
  GI50: > 78.3 µM (inactive)
MOLT-4
  GI50: > 100 µM (inactive)
M14
  GI50: > 79.6 µM (inactive)

## COc1cc(CCN(C)C)cc(OC)c1OC
MDA-MB-435
  GI50: > 100 µM (inactive)
UACC-62
  GI50: > 100 µM (inactive)
MDA-N
  GI50: > 100 µM (inactive)
OVCAR-5
  GI50: > 100 µM (inactive)
CCRF-CEM
  GI50: > 100 µM (inactive)
SK-MEL-2
  GI50: > 100 µM (inactive)
KM12
  GI50: > 100 µM (inactive)
PC-3
  GI50: > 100 µM (inactive)
LOX IMVI
  GI50: > 100 µM (inactive)
HL-60
  GI50: > 100 µM (inactive)
IGROV-1
  GI50: > 100 µM (inactive)
SF-295
  GI50: > 100 µM (inactive)
SW-620
  GI50: > 100 µM (inactive)
HOP-92
  GI50: > 100 µM (inactive)
NCI-H522
  GI50: > 100 µM (inactive)
MDA-MB-231
  GI50: > 100 µM (inactive)
BT-549
  GI50: > 100 µM (inactive)
SK-MEL-5
  GI50: > 100 µM (inactive)
HCC 2998
  GI50: > 100 µM (inactive)
DU-145
  GI50: > 100 µM (inactive)
OVCAR-8
  GI50: > 100 µM (inactive)
SNB-19
  GI50: > 100 µM (inactive)
HCT-15
  GI50: > 100 µM
HOP-62
  GI50: > 100 µM (inactive)
NCI-H460
  GI50: > 100 µM (inactive)
A498
  GI50: > 100 µM (inactive)
COLO 205
  GI50: > 100 µM (inactive)
SF-268
  GI50: > 100 µM (inactive)
MCF7
  GI50: > 100 µM (inactive)
SN12C
  GI50: > 100 µM (inactive)
SNB-75
  GI50: > 100 µM (inactive)
EKVX
  GI50: > 100 µM (inactive)
T47D
  GI50: > 100 µM (inactive)
U-251
  GI50: > 100 µM (inactive)
RXF 393
  GI50: > 100 µM (inactive)
HT-29
  GI50: > 100 µM (inactive)
A549
  GI50: > 100 µM (inactive)
TK-10
  GI50: > 100 µM (inactive)
HCT-116
  GI50: > 100 µM (inactive)
UACC-257
  GI50: > 100 µM (inactive)
SR
  GI50: > 100 µM (inactive)
RPMI-8226
  GI50: > 100 µM (inactive)
ACHN
  GI50: > 100 µM (inactive)
NCI/ADR-RES
  GI50: > 100 µM (inactive)
OVCAR-4
  GI50: > 100 µM (inactive)
NCI-H23
  GI50: > 100 µM (inactive)
K562
  GI50: > 100 µM (inactive)
SK-OV-3
  GI50: > 100 µM (inactive)
NCI-H226
  GI50: > 100 µM (inactive)
Hs-578T
  GI50: > 100 µM (inactive)
SF-539
  GI50: > 100 µM (inactive)
OVCAR-3
  GI50: > 100 µM (inactive)
CAKI-1
  GI50: > 100 µM (inactive)
MOLT-4
  GI50: > 100 µM (inactive)
M14
  GI50: > 100 µM (inactive)
